According to patent US4677100A, “Cephalosporin derivatives” (Banyu Pharmaceutical Co., Ltd., priority 1984, dated 1987):
≈ marks a conversion by molar mass, not a printed value.

Tests used:
[1] = test system: A. calcoaceticus No. 14; assay: MIC, agar plate dilution method; type: cell-based; conditions: Acinetobacter calcoaceticus; for MIC: A. calcoaceticus No. 14, 10^6 CFU/ml, Sensitivity Disk Agar, read-out: Minimum Inhibitory Concentration
Protocol: (§1) The minimum inhibitory concentrations (MIC: μg/ml) of the compounds of the present invention against various microorganisms were measured by an agar plate dilution method (inoculum size: 10^6 CFU/ml) by using Sensitivity Disk Agar (Nissui) in comparison with Cefotaxime and Ceftazidime as comparative compounds.

[2] = test system: C. freundii No. 7; assay: MIC, agar plate dilution method; type: cell-based; conditions: Citrobacter freundii; C. freundii No. 7; 10^6 CFU/ml; Sensitivity Disk Agar; read-out: Minimum Inhibitory Concentration
Protocol: as §1

[3] = test system: E. cloaceae Nek 39; assay: MIC, agar plate dilution method; type: cell-based; conditions: E. cloaceae Nek 39; 10^6 CFU/ml; Sensitivity Disk Agar; read-out: Minimum Inhibitory Concentration
Protocol: as §1

[4] = test system: E. coli C/Rms149; assay: MIC, agar plate dilution method; type: cell-based; conditions: Escherichia coli, read-out: Minimum Inhibitory Concentration
Protocol: as §1

[5] = test system: E. coli CSH2; assay: MIC, agar plate dilution method; type: cell-based; conditions: Escherichia coli, 10^6 CFU/ml, Sensitivity Disk Agar, read-out: Minimum Inhibitory Concentration
Protocol: as §1

[6] = test system: E. coli CSH; assay: MIC, agar plate dilution method; type: cell-based; conditions: Escherichia coli, read-out: Minimum Inhibitory Concentration
Protocol: as §1

[7] = test system: E. coli ML1410/Rte16; assay: MIC, agar plate dilution method; type: cell-based; conditions: Escherichia coli, ML1410/RTE16, read-out: Minimum Inhibitory Concentration
Protocol: as §1

[8] = test system: E. coli NIHJJC-2; assay: MIC, agar plate dilution method; type: cell-based; conditions: Escherichia coli, NIHJJC2; E. coli NIHJJC-2; 10^6 CFU/ml; Sensitivity Disk Agar; read-out: Minimum Inhibitory Concentration
Protocol: as §1

[9] = test system: E. coli W3630/Rms212; assay: MIC, agar plate dilution method; type: cell-based; conditions: Escherichia coli, W3630/RMS212, read-out: Minimum Inhibitory Concentration
Protocol: as §1

[10] = test system: E. coli W3630/Rms213; assay: MIC, agar plate dilution method; type: cell-based; conditions: Escherichia coli, W3630/RMS213, read-out: Minimum Inhibitory Concentration
Protocol: as §1

[11] = test system: K. pneumoniae No. 42; assay: MIC, agar plate dilution method; type: cell-based; conditions: Klebsiella pneumoniae; K. pneumoniae No. 42; 10^6 CFU/ml; Sensitivity Disk Agar; read-out: Minimum Inhibitory Concentration
Protocol: as §1

[12] = test system: P. mirabilis JY10; assay: MIC, agar plate dilution method; type: cell-based; conditions: Proteus mirabilis; P. mirabilis JY10; 10^6 CFU/ml; Sensitivity Disk Agar; read-out: Minimum Inhibitory Concentration
Protocol: as §1

[13] = test system: P. vulgaris No. 33; assay: MIC, agar plate dilution method; type: cell-based; conditions: Proteus vulgaris; P. vulgaris No. 33; 10^6 CFU/ml; Sensitivity Disk Agar; read-out: Minimum Inhibitory Concentration
Protocol: as §1

[14] = test system: P. vulgaris OB1043; assay: MIC, agar plate dilution method; type: cell-based; conditions: Proteus vulgaris; P. vulgaris OB1043; 10^6 CFU/ml; Sensitivity Disk Agar; read-out: Minimum Inhibitory Concentration
Protocol: as §1

[15] = test system: S. aureus JS-1; assay: MIC, agar plate dilution method; type: cell-based; conditions: Staphylococcus aureus, JS1; S. aureus JS-1; 10^6 CFU/ml; Sensitivity Disk Agar; read-out: Minimum Inhibitory Concentration
Protocol: as §1

[16] = test system: S. aureus NIHJJC-1; assay: MIC, agar plate dilution method; type: cell-based; conditions: Staphylococcus aureus, NIHJJC1; S. aureus NIHJJC-1; 10^6 CFU/ml; Sensitivity Disk Agar; read-out: Minimum Inhibitory Concentration
Protocol: as §1

[17] = test system: S. marcescens No. 16-2; assay: MIC, agar plate dilution method; type: cell-based; conditions: Serratia marcescens, NO.162; S. marcescens No. 16-2; 10^6 CFU/ml; Sensitivity Disk Agar; read-out: Minimum Inhibitory Concentration
Protocol: as §1

[18] = test system: P. aeruginosa AK109; assay: MIC, agar plate dilution method; type: cell-based, Pseudomonas aeruginosa; conditions: for antibacterial activity relative to the compound of Reference Example: Pseudomonas aeruginosa AK109; for MIC: Pseudomonas aeruginosa, P. aeruginosa AK109, 10^6 CFU/ml, Sensitivity Disk Agar, read-out: Minimum Inhibitory Concentration
Protocol: as §1

[19] = test system: P. aeruginosa AKR17; assay: MIC, agar plate dilution method; type: cell-based, Pseudomonas aeruginosa; conditions: for antibacterial activity relative to the compound of Reference Example: Pseudomonas aeruginosa AKR-17, resistant to all cephalosporins including Ceftazidime; for MIC: Pseudomonas aeruginosa, P. aeruginosa AKR17, 10^6 CFU/ml, Sensitivity Disk Agar, read-out: Minimum Inhibitory Concentration
Protocol: as §1

[20] = test system: P. cepacia 23; assay: MIC, agar plate dilution method; type: cell-based, Pseudomonas cepacia; conditions: for MIC: Burkholderia cepacia, P. cepacia 23, 10^6 CFU/ml, Sensitivity Disk Agar, read-out: Minimum Inhibitory Concentration; for antibacterial activity relative to the compound of Reference Example: Pseudomonas cepacia 23
Protocol: as §1

[21] = test system: P. maltophilia IID 1275; assay: MIC, agar plate dilution method; type: cell-based, Pseudomonas maltophilia; conditions: for antibacterial activity relative to the compound of Reference Example: Pseudomonas maltophilia resistant to all cephalosporins; for MIC: Stenotrophomonas maltophilia, IID1275, P. maltophilia IID 1275, 10^6 CFU/ml, Sensitivity Disk Agar, read-out: Minimum Inhibitory Concentration
Protocol: as §1

[22] = test system: Gram-positive bacteria and Gram-negative bacteria; assay: antibacterial activity, general statement; type: cell-based; conditions: sensitive and resistant bacteria
Protocol: as §1

SMILES | antibacterial activity relative to the compound of Reference Example [1] | MIC [1] | MIC [2] | MIC [3] | MIC [4] | MIC [5] | MIC [6] | MIC [7] | MIC [8] | MIC [9] | MIC [10] | MIC [11] | MIC [12] | MIC [13] | MIC [14] | MIC [15] | MIC [16] | MIC [17] | antibacterial activity relative to the compound of Reference Example [18] | MIC [18] | other results
CC(C)(ON=C(C(=O)NC1C(=O)N2C(C(=O)[O-])=C(C[N+]3(C)Cc4cc(O)c(O)cc4C3)CSC12)c1csc(N)n1)C(=O)O (stereo not drawn) [Ex. 7-E, 7-[(Z)-2-(2-aminothiazol-4-yl)-2-(1-carboxy-1-methylethoxyimino)acetamido]-3-(5,6-dihydroxy-methyl-2-methyl-2-isoindolinium)methyl-3-cephem-4-carboxylate] | at least 32 times | 0.1 µg/mL (≈ 0.158 µM) | 0.78 µg/mL (≈ 1.23 µM) | ≤ 0.05 µg/mL | ≤ 0.05 µg/mL | ≤ 0.05 µg/mL | 0.1 µg/mL (≈ 0.158 µM) | ≤ 0.05 µg/mL | ≤ 0.05 µg/mL | ≤ 0.05 µg/mL | ≤ 0.05 µg/mL | ≤ 0.05 µg/mL | 0.1 µg/mL (≈ 0.158 µM) | 0.2 µg/mL (≈ 0.316 µM) | 0.1 µg/mL (≈ 0.158 µM) | > 25 µg/mL | 25 µg/mL (≈ 39.5 µM) | 0.39 µg/mL (≈ 0.616 µM) | at least 16 times | ≤ 0.05 µg/mL | antibacterial activity relative to the compound of Reference Example [19]: at least 32 times; MIC [19]: ≤ 0.05 µg/mL; MIC [20]: ≤ 0.05 µg/mL; antibacterial activity relative to the compound of Reference Example [20]: at least 32 times; antibacterial activity relative to the compound of Reference Example [21]: at least twice as strong; MIC [21]: 3.12 µg/mL (≈ 4.93 µM); antibacterial activity (in words) [22]: particularly strong antibacterial activities
C[N+]1(CC2=C(C(=O)[O-])N3C(=O)C(NC(=O)C(=NOCC(=O)O)c4csc(N)n4)C3SC2)Cc2cc(O)c(O)cc2C1 (stereo not drawn) [Ex. 8-E, 7-[(Z)-2-(2-aminothiazol-4-yl)-2-carboxymethoxyimino)acetamido]-3-(5,6-dihydroxy-2-methyl-2-isoindolinium)methyl-3-cephem-4-carboxylate] | at least 32 times | ≤ 0.05 µg/mL | 0.78 µg/mL (≈ 1.29 µM) | ≤ 0.05 µg/mL | ≤ 0.05 µg/mL | ≤ 0.05 µg/mL | 0.1 µg/mL (≈ 0.165 µM) | ≤ 0.05 µg/mL | ≤ 0.05 µg/mL | ≤ 0.05 µg/mL | ≤ 0.05 µg/mL | ≤ 0.05 µg/mL | 0.2 µg/mL (≈ 0.331 µM) | 0.1 µg/mL (≈ 0.165 µM) | 0.2 µg/mL (≈ 0.331 µM) | > 25 µg/mL | 12.5 µg/mL (≈ 20.7 µM) | 0.78 µg/mL (≈ 1.29 µM) | at least 16 times | ≤ 0.05 µg/mL | antibacterial activity relative to the compound of Reference Example [19]: at least 32 times; MIC [19]: 0.2 µg/mL (≈ 0.331 µM); MIC [20]: ≤ 0.05 µg/mL; antibacterial activity relative to the compound of Reference Example [20]: at least 32 times; antibacterial activity relative to the compound of Reference Example [21]: at least twice as strong; MIC [21]: 6.25 µg/mL (≈ 10.3 µM); antibacterial activity (in words) [22]: particularly strong antibacterial activities
CC(C)ON=C(C(=O)NC1C(=O)N2C(C(=O)[O-])=C(C[N+]3(C)Cc4cc(O)c(O)cc4C3)CSC12)c1csc(N)n1 (stereo not drawn) [Ex. 9-C, 7-[(Z)-2-(2-aminothiazol-4-yl)-2-isopropoxyiminoacetamido]-3-(5,6-dihydroxy-2-methyl-2-isoindolinium) methyl-3-cephem-4-carboxylate] | at least 32 times | 0.2 µg/mL (≈ 0.34 µM) | 3.12 µg/mL (≈ 5.3 µM) | ≤ 0.05 µg/mL | ≤ 0.05 µg/mL | ≤ 0.05 µg/mL | 0.1 µg/mL (≈ 0.17 µM) | ≤ 0.05 µg/mL | ≤ 0.05 µg/mL | ≤ 0.05 µg/mL | ≤ 0.05 µg/mL | 0.1 µg/mL (≈ 0.17 µM) | 0.1 µg/mL (≈ 0.17 µM) | 0.1 µg/mL (≈ 0.17 µM) | 0.2 µg/mL (≈ 0.34 µM) | 12.5 µg/mL (≈ 21.2 µM) | 6.25 µg/mL (≈ 10.6 µM) | 0.78 µg/mL (≈ 1.33 µM) | at least 16 times | ≤ 0.05 µg/mL | antibacterial activity relative to the compound of Reference Example [19]: at least 32 times; MIC [19]: 0.39 µg/mL (≈ 0.663 µM); MIC [20]: ≤ 0.05 µg/mL; antibacterial activity relative to the compound of Reference Example [20]: at least 32 times; antibacterial activity relative to the compound of Reference Example [21]: at least twice as strong; MIC [21]: 3.12 µg/mL (≈ 5.3 µM); antibacterial activity (in words) [22]: particularly strong antibacterial activities
C[N+]1(CC2=C(C(=O)[O-])N3C(=O)C(NC(=O)C(=NOC4(C(=O)O)CC4)c4csc(N)n4)C3SC2)Cc2cc(O)c(O)cc2C1 (stereo not drawn) [Ex. 10-E, 7-[(Z)-2-(2-aminothiazol-4-yl)-2-(1-carboxy-1-cyclopropoxyimino)acetamido]-3-(5,6-dihydroxy-2-methyl-2-isoindolinium)methyl-3-cephem-4-carboxylate] | at least 32 times | 0.2 µg/mL (≈ 0.317 µM) | 1.56 µg/mL (≈ 2.47 µM) | ≤ 0.05 µg/mL | ≤ 0.05 µg/mL | ≤ 0.05 µg/mL | ≤ 0.05 µg/mL | ≤ 0.05 µg/mL | ≤ 0.05 µg/mL | ≤ 0.05 µg/mL | ≤ 0.05 µg/mL | 0.1 µg/mL (≈ 0.159 µM) | ≤ 0.05 µg/mL | ≤ 0.05 µg/mL | ≤ 0.05 µg/mL | > 25 µg/mL | 25 µg/mL (≈ 39.6 µM) | 0.39 µg/mL (≈ 0.618 µM) | at least 16 times | ≤ 0.05 µg/mL | antibacterial activity relative to the compound of Reference Example [19]: at least 32 times; MIC [19]: 0.1 µg/mL (≈ 0.159 µM); MIC [20]: ≤ 0.05 µg/mL; antibacterial activity relative to the compound of Reference Example [20]: at least 32 times; antibacterial activity relative to the compound of Reference Example [21]: at least twice as strong; MIC [21]: 3.12 µg/mL (≈ 4.95 µM); antibacterial activity (in words) [22]: particularly strong antibacterial activities
C[N+]1(CC2=C(C(=O)[O-])N3C(=O)C(NC(=O)C(=NOC4(C(=O)O)CCCC4)c4csc(N)n4)C3SC2)Cc2cc(O)c(O)cc2C1 (stereo not drawn) [Ex. 12-C, 7-[(Z)-2-(2-aminothiazol-4-yl)-2-(1-carboxy-1-cyclopentyloxyimino)acetamido]-3-(5,6-dihydroxy-2-methyl-2-isoindolinium)methyl-3-cephem-4-carbcxylate] | at least 32 times | 0.2 µg/mL (≈ 0.304 µM) | 1.56 µg/mL (≈ 2.37 µM) | 0.1 µg/mL (≈ 0.152 µM) | ≤ 0.05 µg/mL | 0.1 µg/mL (≈ 0.152 µM) | 0.1 µg/mL (≈ 0.152 µM) | ≤ 0.05 µg/mL | ≤ 0.05 µg/mL | ≤ 0.05 µg/mL | ≤ 0.05 µg/mL | 0.1 µg/mL (≈ 0.152 µM) | ≤ 0.05 µg/mL | 0.1 µg/mL (≈ 0.152 µM) | ≤ 0.05 µg/mL | > 25 µg/mL | 25 µg/mL (≈ 38 µM) | 0.39 µg/mL (≈ 0.592 µM) | at least 16 times | ≤ 0.05 µg/mL | antibacterial activity relative to the compound of Reference Example [19]: at least 32 times; MIC [19]: 0.1 µg/mL (≈ 0.152 µM); MIC [20]: ≤ 0.05 µg/mL; antibacterial activity relative to the compound of Reference Example [20]: at least 32 times; antibacterial activity relative to the compound of Reference Example [21]: at least twice as strong; MIC [21]: 6.25 µg/mL (≈ 9.49 µM); antibacterial activity (in words) [22]: particularly strong antibacterial activities
